Reference: the supplement of paper PMC10307832

Columns and labels:
Assay in all cases: relative viability (nuclei count vs DMSO), 5 days (fraction); higher = more cells survive
[1] = compound: C1/C(=C\C2=CC=CS2)/C(=O)/C(=C/C3=CC=CS3)/C1 + CS(=O)(=O)CCNCc1ccc(-c2ccc3ncnc(Nc4ccc(OCc5cccc(F)c5)c(Cl)c4)c3c2)o1 [Lapatinib] (partner 2 µM)
How it was run: (§1)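 Five library-drug doses in √10 steps were combined with a fixed anchor-drug dose, or a single drug was given alone, by pin tool to lung cancer cell lines in 1536-well plates the day after seeding. Nuclei were stained and counted after 5 days. Relative viability is the nuclei count in treated wells over that in vehicle wells, taken as the median of duplicate plates.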

TPCA-1 + Dasatinib = compound: C1=CC(=CC=C1C2=CC(=C(S2)NC(=O)N)C(=O)N)F [TPCA-1] + Cc1nc(Nc2ncc(C(=O)Nc3c(C)cccc3Cl)s2)cc(N2CCN(CCO)CC2)n1 [Dasatinib] (partner 0.075 µM)
How it was run: as §1

TPCA-1 + Trametinib = compound: C1=CC(=CC=C1C2=CC(=C(S2)NC(=O)N)C(=O)N)F [TPCA-1] + CC(=O)Nc1cccc(-n2c(=O)n(C3CC3)c(=O)c3c(Nc4ccc(I)cc4F)n(C)c(=O)c(C)c32)c1 [Trametinib] (partner 0.02 µM)
How it was run: as §1

TPCA-1 + Lapatinib = compound: C1=CC(=CC=C1C2=CC(=C(S2)NC(=O)N)C(=O)N)F [TPCA-1] + CS(=O)(=O)CCNCc1ccc(-c2ccc3ncnc(Nc4ccc(OCc5cccc(F)c5)c(Cl)c4)c3c2)o1 [Lapatinib] (partner 2 µM)
How it was run: as §1

Cell Line: NCI-H3122
- relative viability ([1]; first compound 0.2 µM): 1
- relative viability ([1]; first compound 0.6325 µM): 1.06
- relative viability ([1]; first compound 2 µM): 1.04
- relative viability ([1]; first compound 6.325 µM): 0.877
- relative viability ([1]; first compound 20 µM): 0.995
- relative viability (TPCA-1 + Dasatinib; first compound 0.04 µM): 1.01
- relative viability (TPCA-1 + Dasatinib; first compound 0.1265 µM): 0.828
- relative viability (TPCA-1 + Dasatinib; first compound 0.4 µM): 0.866
- relative viability (TPCA-1 + Dasatinib; first compound 1.265 µM): 0.851
- relative viability (TPCA-1 + Dasatinib; first compound 4 µM): 0.517
- relative viability (TPCA-1 + Trametinib; first compound 0.04 µM): 0.228
- relative viability (TPCA-1 + Trametinib; first compound 0.1265 µM): 0.177
- relative viability (TPCA-1 + Trametinib; first compound 0.4 µM): 0.228
- relative viability (TPCA-1 + Trametinib; first compound 1.265 µM): 0.243
- relative viability (TPCA-1 + Trametinib; first compound 4 µM): 0.215
- relative viability (TPCA-1 + Lapatinib; first compound 0.04 µM): 1.03
- relative viability (TPCA-1 + Lapatinib; first compound 0.1265 µM): 0.939
- relative viability (TPCA-1 + Lapatinib; first compound 0.4 µM): 0.985
- relative viability (TPCA-1 + Lapatinib; first compound 1.265 µM): 1.05
- relative viability (TPCA-1 + Lapatinib; first compound 4 µM): 0.976

Cell Line: PC-14
- relative viability ([1]; first compound 0.2 µM): 0.352
- relative viability ([1]; first compound 0.6325 µM): 0.362
- relative viability ([1]; first compound 2 µM): 0.353
- relative viability ([1]; first compound 6.325 µM): 0.293
- relative viability ([1]; first compound 20 µM): 0.27
- relative viability (TPCA-1 + Dasatinib; first compound 0.04 µM): 0.324
- relative viability (TPCA-1 + Dasatinib; first compound 0.1265 µM): 0.245
- relative viability (TPCA-1 + Dasatinib; first compound 0.4 µM): 0.283
- relative viability (TPCA-1 + Dasatinib; first compound 1.265 µM): 0.144
- relative viability (TPCA-1 + Dasatinib; first compound 4 µM): 0.0724
- relative viability (TPCA-1 + Trametinib; first compound 0.04 µM): 0.885
- relative viability (TPCA-1 + Trametinib; first compound 0.1265 µM): 0.687
- relative viability (TPCA-1 + Trametinib; first compound 0.4 µM): 0.79
- relative viability (TPCA-1 + Trametinib; first compound 1.265 µM): 0.705
- relative viability (TPCA-1 + Trametinib; first compound 4 µM): 0.57
- relative viability (TPCA-1 + Lapatinib; first compound 0.04 µM): 0.336
- relative viability (TPCA-1 + Lapatinib; first compound 0.1265 µM): 0.327
- relative viability (TPCA-1 + Lapatinib; first compound 0.4 µM): 0.321
- relative viability (TPCA-1 + Lapatinib; first compound 1.265 µM): 0.394
- relative viability (TPCA-1 + Lapatinib; first compound 4 µM): 0.299

Cell Line: EPLC-272H
- relative viability ([1]; first compound 0.2 µM): 1.04
- relative viability ([1]; first compound 0.6325 µM): 0.952
- relative viability ([1]; first compound 2 µM): 1.1
- relative viability ([1]; first compound 6.325 µM): 0.889
- relative viability ([1]; first compound 20 µM): 0.962
- relative viability (TPCA-1 + Dasatinib; first compound 0.04 µM): 0.449
- relative viability (TPCA-1 + Dasatinib; first compound 0.1265 µM): 0.33
- relative viability (TPCA-1 + Dasatinib; first compound 0.4 µM): 0.365
- relative viability (TPCA-1 + Dasatinib; first compound 1.265 µM): 0.421
- relative viability (TPCA-1 + Dasatinib; first compound 4 µM): 0.301
- relative viability (TPCA-1 + Trametinib; first compound 0.04 µM): 0.324
- relative viability (TPCA-1 + Trametinib; first compound 0.1265 µM): 0.22
- relative viability (TPCA-1 + Trametinib; first compound 0.4 µM): 0.329
- relative viability (TPCA-1 + Trametinib; first compound 1.265 µM): 0.332
- relative viability (TPCA-1 + Trametinib; first compound 4 µM): 0.265
- relative viability (TPCA-1 + Lapatinib; first compound 0.04 µM): 1.28
- relative viability (TPCA-1 + Lapatinib; first compound 0.1265 µM): 0.829
- relative viability (TPCA-1 + Lapatinib; first compound 0.4 µM): 0.947
- relative viability (TPCA-1 + Lapatinib; first compound 1.265 µM): 0.954
- relative viability (TPCA-1 + Lapatinib; first compound 4 µM): 0.775

Cell Line: A-427
- relative viability ([1]; first compound 0.2 µM): 1.09
- relative viability ([1]; first compound 0.6325 µM): 1.01
- relative viability ([1]; first compound 2 µM): 1.01
- relative viability ([1]; first compound 6.325 µM): 1.02
- relative viability ([1]; first compound 20 µM): 0.982
- relative viability (TPCA-1 + Dasatinib; first compound 0.04 µM): 0.752
- relative viability (TPCA-1 + Dasatinib; first compound 0.1265 µM): 0.621
- relative viability (TPCA-1 + Dasatinib; first compound 0.4 µM): 0.795
- relative viability (TPCA-1 + Dasatinib; first compound 1.265 µM): 0.745
- relative viability (TPCA-1 + Dasatinib; first compound 4 µM): 0.454
- relative viability (TPCA-1 + Trametinib; first compound 0.04 µM): 0.771
- relative viability (TPCA-1 + Trametinib; first compound 0.1265 µM): 0.652
- relative viability (TPCA-1 + Trametinib; first compound 0.4 µM): 0.875
- relative viability (TPCA-1 + Trametinib; first compound 1.265 µM): 0.68
- relative viability (TPCA-1 + Trametinib; first compound 4 µM): 0.718
- relative viability (TPCA-1 + Lapatinib; first compound 0.04 µM): 1.17
- relative viability (TPCA-1 + Lapatinib; first compound 0.1265 µM): 0.901
- relative viability (TPCA-1 + Lapatinib; first compound 0.4 µM): 1.05
- relative viability (TPCA-1 + Lapatinib; first compound 1.265 µM): 0.989
- relative viability (TPCA-1 + Lapatinib; first compound 4 µM): 0.907
